Measured values: ChEMBL document CHEMBL4177667, “Design, synthesis, and anticancer properties of isocorydine derivatives” (Bioorg Med Chem, 2017)

What was measured:
MGC-803 = assay: Antiproliferative activity against human MGC803 cells after 48 hrs by MTT assay; format: functional, cell-based; settings: MGC-803, 48 h
HepG2 = assay: cells; settings: Homo sapiens, HepG2, 48 h
HeLa = assay: cells; settings: Homo sapiens, 48 h

Row | SMILES | IC50 (MGC-803) [µM] | IC50 (HepG2) [µM] | IC50 (HeLa) [µM]
1 | COc1cc2c3c(c1O)-c1c(ccc(O)c1OC)C[C@@H]3N(C)CC2 | 124 | 154 | 109
2 | COc1cc(NC(=O)Nc2ccc(Cl)c(Cl)c2)c2c(c1O)-c1c(OC)c(OC)cc3c1[C@H](C2)N(C)CC3 | 30 | 28.4 | 21.7
3 | COc1cc(NC(=O)Nc2ccc(C(F)(F)F)cc2)c2c(c1O)-c1c(OC)c(OC)cc3c1[C@H](C2)N(C)CC3 | 57.3 | 45.9 | 49
4 | COc1cc(NC(=O)c2ccccc2O)c2c(c1O)-c1c(OC)c(OC)cc3c1[C@H](C2)N(C)CC3 | 56.6 | 75.4 | 62.1
5 | COc1cc(NC(=O)Nc2ccc(N3CCC(CNC(=O)OC(C)(C)C)CC3)c(C(F)(F)F)c2)c2c(c1O)-c1c(OC)c(OC)cc3c1[C@H](C2)N(C)CC3 | 23.2 | 18.9 | 22.1
6 | COc1cc(NC(=O)/C=C/c2ccccc2)c2c(c1O)-c1c(OC)c(OC)cc3c1[C@H](C2)N(C)CC3 | 37.9 | 63.4 | 74.5
7 | COC1=CC(=O)c2cc3c4c(cc(OC)c(OC)c4c2C1=O)CCN3C | 49.6 | 40 | 31.3
8 | COc1cc(NC(=O)Nc2ccc(SC)cc2)c2c(c1O)-c1c(OC)c(OC)cc3c1[C@H](C2)N(C)CC3 | 47.8 | 53.2 | 46.6
9 | COc1cc(NC(=O)Nc2ccccc2Cl)c2c(c1OC(=O)Nc1ccccc1Cl)-c1c(OC)c(OC)cc3c1[C@H](C2)N(C)CC3 | 26.9 | 17.2 | 27.1
10 | COc1cc(NC(=O)Nc2ccc(C(F)(F)F)cc2)c2c(c1OC(=O)Nc1ccc(C(F)(F)F)cc1)-c1c(OC)c(OC)cc3c1[C@H](C2)N(C)CC3 | 39.3 | 44.1 | 47.7
11 | COc1cc(NC(=O)c2cccnc2)c2c(c1O)-c1c(OC)c(OC)cc3c1[C@H](C2)N(C)CC3 | 34.7 | 69.8 | 49.6
12 | COc1cc(NC(=O)Nc2ccccc2C)c2c(c1OC(=O)Nc1ccccc1C)-c1c(OC)c(OC)cc3c1[C@H](C2)N(C)CC3 | 22.8 | 31.4 | 43.9
13 | COc1cc(NC(=O)Nc2ccccc2Cl)c2c(c1O)-c1c(OC)c(OC)cc3c1[C@H](C2)N(C)CC3 | 35.2 | 36.7 | 36.9
14 | COc1cc(NC(=O)Nc2ccc(C)cc2)c2c(c1OC(=O)Nc1ccc(C)cc1)-c1c(OC)c(OC)cc3c1[C@H](C2)N(C)CC3 | 25.6 | 16.1 | 19.1
15 | COc1ccc2c(c1O)-c1c(O)c(OC)cc3c1[C@H](C2)N(C)CC3 [CORYTUBERINE] | > 200 | > 200 | > 200
16 | CCC(=O)NC1CCN(c2ccc(NC(=O)Nc3cc(OC)c(O)c4c3C[C@H]3c5c(cc(OC)c(OC)c5-4)CCN3C)cc2C(F)(F)F)CC1 | 32.5 | 28.5 | 33.4
17 | COc1cc2c3c(c1O)-c1c(ccc(OC)c1OC)C[C@@H]3N(C)CC2 [CORYDINE] | > 200 | > 200 | > 200
18 | CCC(=O)NCC1CCN(c2ccc(NC(=O)Nc3cc(OC)c(O)c4c3C[C@H]3c5c(cc(OC)c(OC)c5-4)CCN3C)cc2C(F)(F)F)CC1 | 20.4 | 20.7 | 32.5
19 | COc1cc(NC(=O)Nc2ccc(N3CCC(N)CC3)c(C(F)(F)F)c2)c2c(c1O)-c1c(OC)c(OC)cc3c1[C@H](C2)N(C)CC3 | 32.3 | 28.6 | 33.7
20 | COc1cc(N)c2c(c1O)-c1c(OC)c(OC)cc3c1[C@H](C2)N(C)CC3 | 62.1 | 51.1 | 44.1
21 | COc1ccc2c(c1O)-c1c(OC)c(OC)cc3c1[C@H](C2)N(C)CC3 [ISOCORYDINE] | > 200 | > 200 | > 200
